Experimental data as given in patent US6610675B1 (priority 1980, dated 2003).

Experiments:
blanching in humans = test: McKenzie-type human blanching studies; type: in vivo; settings: forearm, 6 hours occlusion
Method: McKenzie-type human blanching studies were undertaken to study the blanching effects of a representative test compound of the invention, chloromethyl 17α-ethoxycarbonyloxy-11β-hydroxyandrost-4-en-3-one-17β-carboxylate.
The test compound was dissolved in ethanol/isopropyl myristate (90/10 or 70/30) at 0.03, 0.01, 0.003, 0.001 and 0.0003 M concentrations. 50 Microliter aliquots of each solution were applied to separate gauze portions of a bandage of the type commonly used for allergy testing and the bandage was applied to the forearm. After 6 hours of occlusion, the bandage was removed.

thymus weight in rats = test: Thymus involution test (topically administered steroids, thymus weight in rats)
Method: The test animals were female Sprague/Dawley rats weighing approximately 40-45 grams each. One side of each ear of each rat was treated with a total of 25 microliters of a solution (ethanol/isopropyl myristate or acetone/isopropyl myristate, 90/10) containing the amount of test compound indicated below. Animals which were treated identically, save for omission of the test compound, served as controls. After 24 hours, all rats were sacrificed and weighed, and their thymi were removed and weighed.
The lower the weight of the thymi, the greater the systemic activity.

[1] = 0.75 μmol topical on ear, after 24 hours

SMILES: C[C@]12CCC(=O)C=C1CC[C@@H]1[C@@H]2[C@@H](O)C[C@@]2(C)[C@H]1CC[C@]2(O)C(=O)CO [Hydrocortisone]
- blanching (blanching in humans; 0.03 to 0.0003 M, 50 microliter, read 1 to 5 hours after removal): blanching was not observed at concentrations of hydrocortisone below 0.03 M
- concentration causing approximately the same degree of blanching (blanching in humans; direct comparison): ~0.03 M
- decrease in thymus weight compared to the control (in words) (thymus weight in rats; 0.75 μmol topical): causes a significant decrease in thymus weight compared to the control
- Total Weight per Rat, % Gain ± SD (thymus weight in rats; [1]): 24 ± 7%
- Total Weight per Rat, Final (thymus weight in rats; [1]): 61.15 g
- mg Thymus ± SD / 100 g Rat (thymus weight in rats; [1]): 274 ± 45 mg/100 g
